Tested on: IL-2 secretion from Compound 1 reference standard (RS) specific T-cells
Assay: Inhibition of IL-2 secretion from Compound 1 RS specific T-cells following s.c. treatment, ELISA
Type: in vivo, mice
Details: at the range of 5-100 μg/ml activator
Description: The biological activity was monitored by inhibition of IL-2 secretion from Compound 1 reference standard (RS) specific T-cells following subcutaneous (s.c.) treatment with the lyophilized compound solution, i.e. the drug product (DP), at two concentrations. The results of the treatment are compared to those of treating mice with Compound 1 (RS) in phosphate buffered saline (PBS).

## H-GYYWSWIRQPPGKGEEWIG-OH [Compound 1]
Treatment 50 μg/mouse s.c.
  Average inhibition (%) of IL-2 secretion: 45.6%
Treatment 200 μg/mouse s.c.
  Average inhibition (%) of IL-2 secretion: 60.4%
